Source: patent US10202378B2, “Therapeutic compounds and uses thereof” (GENENTECH, INC., priority 2015, dated 2019)

Assays:
TAF1-BD2 = TAF1-BD2 (Homo sapiens, UniProt P21675); assay: TAF1-BD2 TR-FRET Binding Assay; settings: read-out: TAF1-BD2 HTRF IC50
TAF1-BD1 = TAF1-BD1 (Homo sapiens, UniProt P21675); assay: TAF1-BD1 TR-FRET Binding Assay; settings: read-out: TAF1-BD1 HTRF IC50

Row | Compound | IC50 (TAF1-BD2) [nM] | IC50 (TAF1-BD1) [nM]
1 | CCOC(=O)c1c(C)[nH]c2c(=O)n(C)cc(C#Cc3ccsc3)c12 [Example 62, ethyl 2,6-dimethyl-7-oxo-4-[2-(3-thienyl)ethynyl]-1H-pyrrolo[2,3-c]pyridine-3-carboxylate] | 57.9 | 402
2 | CCOC(=O)c1c(C)[nH]c2c(=O)n(C)cc(C#Cc3cccc(O)c3)c12 [Example 63, ethyl 4-[2-(3-hydroxyphenyl)ethynyl]-2,6-dimethyl-7-oxo-1H-pyrrolo[2,3-c]pyridine-3-carboxylate] | 38.5 | 195
3 | CCOC(=O)c1c(C)[nH]c2c(=O)n(C)cc(C#C[C@@](C)(O)c3nnc(C)o3)c12 [Example 64, ethyl 4-[(3R)-3-hydroxy-3-(5-methyl-1,3,4-oxadiazol-2-yl)but-1-ynyl]-2,6-dimethyl-7-oxo-1H-pyrrolo[2,3-c]pyridine-3-carboxylate] | 160 | 502
4 | CCOC(=O)c1c(C)[nH]c2c(=O)n(C)cc(C#C[C@@](C)(O)c3cc(C)no3)c12 [Example 69, ethyl 4-[(3R)-3-hydroxy-3-(3-methylisoxazol-5-yl)but-1-ynyl]-2,6-dimethyl-7-oxo-1H-pyrrolo[2,3-c]pyridine-3-carboxylate] | 61 | 210
5 | CCOC(=O)c1c(C)[nH]c2c(=O)n(C)cc(C#CC(C)(O)C(C)C)c12 (centres unmarked) [Example 70, ethyl 4-(3-hydroxy-3,4-dimethyl-pent-1-ynyl)-2,6-dimethyl-7-oxo-1H-pyrrolo[2,3-c]pyridine-3-carboxylate] | 82.3 | 515
6 | C=CCCn1cc(C#C[C@](C)(O)c2cc(C)on2)c2c(C(=O)OCC)c(C)[nH]c2c1=O [Example 71, ethyl 6-but-3-enyl-4-[(3S)-3-hydroxy-3-(5-methylisoxazol-3-yl)but-1-ynyl]-2-methyl-7-oxo-1H-pyrrolo[2,3-c]pyridine-3-carboxylate] | 190 | 2510
7 | C=CCCn1cc(C#CC(C)(O)CC#N)c2c(C(=O)OCC)c(C)[nH]c2c1=O (centres unmarked) [Example 72, ethyl 6-but-3-enyl-4-(4-cyano-3-hydroxy-3-methyl-but-1-ynyl)-2-methyl-7-oxo-1H-pyrrolo[2,3-c]pyridine-3-carboxylate] | 181 | > 20000
8 | CCOC(=O)c1c(C)[nH]c2c(=O)n(C)cc(C#CC(O)(c3ccccc3)C(F)(F)F)c12 (centres unmarked) [Example 73, ethyl 2,6-dimethyl-7-oxo-4-(4,4,4-trifluoro-3-hydroxy-3-phenyl-but-1-ynyl)-1H-pyrrolo[2,3-c]pyridine-3-carboxylate] | 69.5 | 287
9 | CCOC(=O)c1c(C)[nH]c2c(=O)n(C)cc(C#CC3(O)CCN(C)C3=O)c12 (centres unmarked) [Example 74, ethyl 4-[2-(3-hydroxy-1-methyl-2-oxo-pyrrolidin-3-yl)ethynyl]-2,6-dimethyl-7-oxo-1H-pyrrolo[2,3-c]pyridine-3-carboxylate] | 209 | 2040
10 | CCOC(=O)c1c(C)[nH]c2c(=O)n(C)cc(C#CC(O)(CC)c3ccccc3)c12 (centres unmarked) [Example 75, ethyl 4-(3-hydroxy-3-phenyl-pent-1-ynyl)-2,6-dimethyl-7-oxo-1H-pyrrolo[2,3-c]pyridine-3-carboxylate] | 76.5 | 427
11 | CCOC(=O)c1c(C)[nH]c2c(=O)n(C)cc(C#CC(C)(C)C)c12 [Example 76, ethyl 4-(3,3-dimethylbut-1-ynyl)-2,6-dimethyl-7-oxo-1H-pyrrolo[2,3-c]pyridine-3-carboxylate] | 777 | 561
12 | CCOC(=O)c1c(C)[nH]c2c(=O)n(C)cc(C#CC(C)(C)O)c12 [Example 78, ethyl 4-(3-hydroxy-3-methyl-but-1-ynyl)-2,6-dimethyl-7-oxo-1H-pyrrolo[2,3-c]pyridine-3-carboxylate] | 38.5 | 616
13 | CCOC(=O)c1c(C)[nH]c2c(=O)n(C)cc(C#CC3CCCCC3)c12 [Example 79, ethyl 4-(2-cyclohexylethynyl)-2,6-dimethyl-7-oxo-1H-pyrrolo[2,3-c]pyridine-3-carboxylate] | 584 | 1330
14 | CCOC(=O)c1c(C)[nH]c2c(=O)n(C)cc(C#CC3(O)CCCCC3)c12 [Example 81, ethyl 4-[2-(1-hydroxycyclohexyl)ethynyl]-2,6-dimethyl-7-oxo-1H-pyrrolo[2,3-c]pyridine-3-carboxylate] | 63.2 | 257
15 | CCOC(=O)c1c(C)[nH]c2c(=O)n(C)cc(C#CCCO)c12 [Example 82, ethyl 4-(4-hydroxybut-1-ynyl)-2,6-dimethyl-7-oxo-1H-pyrrolo[2,3-c]pyridine-3-carboxylate] | 337 | 1750
16 | CCOC(=O)c1c(C)[nH]c2c(=O)n(C)cc(C#CC3(O)C(=O)N(C)c4ccccc43)c12 (centres unmarked) [Example 86, ethyl 4-[2-(3-hydroxy-1-methyl-2-oxo-indolin-3-yl)ethynyl]-2,6-dimethyl-7-oxo-1H-pyrrolo[2,3-c]pyridine-3-carboxylate] | 98.1 | 581

Row | Compound | IC50 (TAF1-BD2) [nM] | IC50 (TAF1-BD1) [nM]
17 | CCOC(=O)c1c(C)[nH]c2c(=O)n(C)cc(C#CC(C)(O)C3CCOCC3)c12 (centres unmarked) [Example 87, ethyl 4-(3-hydroxy-3-tetrahydropyran-4-yl-but-1-ynyl)-2,6-dimethyl-7-oxo-1H-pyrrolo[2,3-c]pyridine-3-carboxylate] | 181 | 770
18 | CCOC(=O)c1c(C)[nH]c2c(=O)n(C)cc(C#CC3(O)CCOCC3)c12 [Example 88, ethyl 4-[2-(4-hydroxytetrahydropyran-4-yl)ethynyl]-2,6-dimethyl-7-oxo-1H-pyrrolo[2,3-c]pyridine-3-carboxylate] | 98.6 | 1110
19 | CCOC(=O)c1c(C)[nH]c2c(=O)n(C)cc(C#CC(O)(c3ccccc3)C(F)F)c12 (centres unmarked) [Example 89, ethyl 4-(4,4-difluoro-3-hydroxy-3-phenyl-but-1-ynyl)-2,6-dimethyl-7-oxo-1H-pyrrolo[2,3-c]pyridine-3-carboxylate] | 32.9 | 278
20 | CCOC(=O)c1c(C)[nH]c2c(=O)n(C)cc(C#CC(O)(c3cccc(Oc4ccccc4)c3)C(F)(F)F)c12 (centres unmarked) [Example 90, ethyl 2,6-dimethyl-7-oxo-4-[4,4,4-trifluoro-3-hydroxy-3-(3-phenoxyphenyl)but-1-ynyl]-1H-pyrrolo[2,3-c]pyridine-3-carboxylate] | 699 | 2280
21 | CCOC(=O)c1c(C)[nH]c2c(=O)n(C)cc(C#CC(O)(c3cccc(-c4cccnc4)c3)C(F)(F)F)c12 (centres unmarked) [Example 100, ethyl 2,6-dimethyl-7-oxo-4-[4,4,4-trifluoro-3-hydroxy-3-[3-(3-pyridyl)phenyl]but-1-ynyl]-1H-pyrrolo[2,3-c]pyridine-3-carboxylate] | 27.3 | 189
22 | CCOC(=O)c1c(C)[nH]c2c(=O)n(C)cc(C#CC(O)(c3cccc(-c4ccccc4OC)c3)C(F)(F)F)c12 (centres unmarked) [Example 101, ethyl 2,6-dimethyl-7-oxo-4-[4,4,4-trifluoro-3-hydroxy-3-[3-(2-methoxyphenyl)phenyl]but-1-ynyl]-1H-pyrrolo[2,3-c]pyridine-3-carboxylate] | 608 | 4330
23 | CCOC(=O)c1c(C)[nH]c2c(=O)n(C)cc(C#CC(O)(c3cccc(-c4ccccc4C)c3)C(F)(F)F)c12 (centres unmarked) [Example 102, ethyl 2,6-dimethyl-7-oxo-4-[4,4,4-trifluoro-3-hydroxy-3-[3-(o-tolyl)phenyl]but-1-ynyl]-1H-pyrrolo[2,3-c]pyridine-3-carboxylate] | 912 | 7510
24 | Cc1[nH]c2c(=O)n(C)cc(C#CC(C)(C)O)c2c1C(=O)OCc1ccccc1 [Example 103, Benzyl 4-(3-hydroxy-3-methyl-but-1-ynyl)-2,6-dimethyl-7-oxo-1H-pyrrolo[2,3-c]pyridine-3-carboxylate] | 34.5 | 151
25 | Cc1[nH]c2c(=O)n(C)cc(C#CC(O)(c3ccccc3)C(F)(F)F)c2c1C(=O)OC(C)c1ccccc1 (centres unmarked) [Example 104, 1-phenylethyl 2,6-dimethyl-7-oxo-4-(4,4,4-trifluoro-3-hydroxy-3-phenyl-but-1-ynyl)-1H-pyrrolo[2,3-c]pyridine-3-carboxylate] | 1200 | 3210
26 | Cc1[nH]c2c(=O)n(C)cc(C#CC(C)(O)C3CC3)c2c1C(=O)OCc1cccc2cccnc12 (centres unmarked) [Example 105, 8-quinolylmethyl 4-(3-cyclopropyl-3-hydroxy-but-1-ynyl)-2,6-dimethyl-7-oxo-1H-pyrrolo[2,3-c]pyridine-3-carboxylate] | 34.6 | 93.9
27 | Cc1[nH]c2c(=O)n(C)cc(C#CC(O)(c3ccccc3)C(F)(F)F)c2c1C(=O)OCc1ccccc1C#N (centres unmarked) [Example 107, (2-cyanophenyl)methyl 2,6-dimethyl-7-oxo-4-(4,4,4-trifluoro-3-hydroxy-3-phenyl-but-1-ynyl)-1H-pyrrolo[2,3-c]pyridine-3-carboxylate] | 344 | 1630
28 | Cc1ccccc1COC(=O)c1c(C)[nH]c2c(=O)n(C)cc(C#CC(O)(c3ccccc3)C(F)(F)F)c12 (centres unmarked) [Example 108, o-tolylmethyl 2,6-dimethyl-7-oxo-4-(4,4,4-trifluoro-3-hydroxy-3-phenyl-but-1-ynyl)-1H-pyrrolo[2,3-c]pyridine-3-carboxylate] | 1260 | 3350
29 | Cc1[nH]c2c(=O)n(C)cc(C#CC(C)(O)C3CC3)c2c1C(=O)OCc1nccs1 (centres unmarked) [Example 109, thiazol-2-ylmethyl 4-(3-cyclopropyl-3-hydroxy-but-1-ynyl)-2,6-dimethyl-7-oxo-1H-pyrrolo[2,3-c]pyridine-3-carboxylate] | 67.9 | 222
30 | Cc1[nH]c2c(=O)n(C)cc(C#CC(C)(C)O)c2c1C(=O)OCc1ccccc1C#N [Example 110, (2-cyanophenyl)methyl 4-(3-hydroxy-3-methyl-but-1-ynyl)-2,6-dimethyl-7-oxo-1H-pyrrolo[2,3-c]pyridine-3-carboxylate] | 29.4 | 116
31 | Cc1[nH]c2c(=O)n(C)cc(C#CC(C)(C)O)c2c1C(=O)OCc1ccccc1CO [Example 111, [2-(hydroxymethyl)phenyl]methyl 4-(3-hydroxy-3-methyl-but-1-ynyl)-2,6-dimethyl-7-oxo-1H-pyrrolo[2,3-c]pyridine-3-carboxylate] | 37.9 | 259
